From ChEMBL document CHEMBL1201862, “PubChem BioAssay data set” (2004)
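Step 1: Grow cells in 96-well plates. Step 2: Expose to compound for 48 hours at 5 concentrations. Step 3: Interpolate endpoints linearly; if unreached, use highest concentration. GI50: concentration for 50% inhibition of growth.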 The source made the active and inactive calls. No stated cut-off is given here; in the data, active = GI50 up to about 1.1 µM and inactive = higher.

Tests used:
Assay in all cases: NCI tumour cell line growth inhibition, 48 h
Malme-3M = tested on: Malme-3M
HOP-62 = tested on: HOP-62
HOP-92 = tested on: HOP-92
SNB-19 = tested on: SNB-19
HT-29 = tested on: HT-29
SK-MEL-5 = tested on: SK-MEL-5
CCRF-CEM = tested on: CCRF-CEM
NCI-H460 = tested on: NCI-H460
ACHN = tested on: ACHN
UO-31 = tested on: UO-31
SN12C = tested on: SN12C
EKVX = tested on: EKVX
SW-620 = tested on: SW-620
HCT-15 = tested on: HCT-15
SF-539 = tested on: SF-539
CAKI-1 = tested on: CAKI-1
SR = tested on: SR

Structure (SMILES) | GI50 (Malme-3M) | GI50 (HOP-62) | GI50 (HOP-92) | GI50 (SNB-19) | GI50 (HT-29) | GI50 (SK-MEL-5) | GI50 (CCRF-CEM) | GI50 (NCI-H460) | GI50 (ACHN) | GI50 (UO-31) | GI50 (SN12C) | GI50 (EKVX) | GI50 (SW-620) | GI50 (HCT-15) | GI50 (SF-539) | GI50 (CAKI-1) | GI50 (SR)
O=C(CC1SC(Nc2ccccc2Cl)=NC1=O)Nc1ccc(Cl)cc1Cl (stereo unspecified) | > 100 µM (inactive) | > 100 µM (inactive) | > 100 µM (inactive) | > 100 µM (inactive) | > 100 µM (inactive) | > 100 µM (inactive) | > 100 µM (inactive) | > 100 µM (inactive) | > 100 µM (inactive) | > 100 µM (inactive) | > 100 µM (inactive) | > 100 µM (inactive) | > 100 µM (inactive) | – | – | – | –
CCOC(=O)Cc1nc2ccc3c(c2nc1O)C(=O)c1ccccc1C3=O | 60.7 µM (inactive) | 28.2 µM (inactive) | 60.4 µM (inactive) | > 100 µM (inactive) | > 100 µM (inactive) | 26.1 µM (inactive) | 1.95 µM (inactive) | 35.4 µM (inactive) | 20.6 µM (inactive) | 35.4 µM (inactive) | 23.7 µM (inactive) | 3.61 µM (inactive) | 56 µM (inactive) | 25.2 µM | 76.4 µM (inactive) | 14.6 µM (inactive) | –
CN1N=C(Nc2ccccc2)Sc2c1cnn(-c1ccccc1)c2=O | > 100 µM (inactive) | > 100 µM (inactive) | 6.62 µM (inactive) | 96.4 µM (inactive) | > 100 µM (inactive) | – | > 100 µM (inactive) | > 100 µM (inactive) | > 100 µM (inactive) | 83.2 µM (inactive) | > 100 µM (inactive) | > 100 µM (inactive) | > 100 µM (inactive) | > 100 µM | > 100 µM (inactive) | – | –
CSc1ccc2c(cc1=O)C(NC(=O)c1ccc(C#N)cc1)CCc1cc(O)c(O)c(O)c1-2 (stereo unspecified) | > 100 µM (inactive) | > 100 µM (inactive) | – | 41.9 µM (inactive) | 29 µM (inactive) | 15.4 µM (inactive) | 9.66 µM (inactive) | 27.6 µM (inactive) | > 100 µM (inactive) | 75.9 µM (inactive) | 19.8 µM (inactive) | 22.4 µM (inactive) | 19.5 µM (inactive) | 19 µM | 15.5 µM (inactive) | – | 11.7 µM (inactive)
COc1ccc(C2N3CCCCC3[C@@H]3c4[nH]c5ccccc5c4CCN23)c(OC)c1 (stereo partly specified) | – | 84.7 µM (inactive) | 49.9 µM (inactive) | 39.4 µM (inactive) | 15.8 µM (inactive) | 16.3 µM (inactive) | 26.9 µM (inactive) | 22 µM (inactive) | 23.6 µM (inactive) | 23.5 µM (inactive) | 18 µM (inactive) | > 100 µM (inactive) | 33.7 µM (inactive) | 28 µM | 18.5 µM (inactive) | 52 µM (inactive) | –
CCc1cc2c(Nc3ccccc3)c3c(nc2s1)CCCC3 | > 100 µM (inactive) | 79.4 µM (inactive) | 16.7 µM (inactive) | > 100 µM (inactive) | – | 4.79 µM (inactive) | 20.9 µM (inactive) | > 100 µM (inactive) | 94.2 µM (inactive) | 3.99 µM (inactive) | > 100 µM (inactive) | > 100 µM (inactive) | 80.5 µM (inactive) | 38.8 µM | 43 µM (inactive) | – | 5.3 µM (inactive)
COc1cccc([C@@]2(O)c3c(ccc(O)c3OC)[C@H]2OC)c1OC | 46.2 µM (inactive) | 60.5 µM (inactive) | 62.7 µM (inactive) | 74 µM (inactive) | 28.1 µM (inactive) | 37.9 µM (inactive) | 45.4 µM (inactive) | 47.4 µM (inactive) | 31.3 µM (inactive) | 36.4 µM (inactive) | 62.1 µM (inactive) | 47.2 µM (inactive) | 28.6 µM (inactive) | – | – | 22.6 µM (inactive) | 38.5 µM (inactive)
Cc1cnc[nH]c1=O | > 100 µM (inactive) | > 100 µM (inactive) | – | > 100 µM (inactive) | > 100 µM (inactive) | > 100 µM (inactive) | > 100 µM (inactive) | > 100 µM (inactive) | > 100 µM (inactive) | > 100 µM (inactive) | > 100 µM (inactive) | > 100 µM (inactive) | > 100 µM (inactive) | > 100 µM | – | > 100 µM (inactive) | –
O=C(N/N=C/c1ccccc1O)c1cccc([N+](=O)[O-])c1 | 30.8 µM (inactive) | – | – | > 58.9 µM (inactive) | 5.93 µM (inactive) | 9.98 µM (inactive) | 3.03 µM (inactive) | 4.68 µM (inactive) | 8.41 µM (inactive) | 7.82 µM (inactive) | 21.1 µM (inactive) | 21.1 µM (inactive) | 4.54 µM (inactive) | 6.59 µM | 13.8 µM (inactive) | – | 3.78 µM (inactive)
